What was measured:
Type in all cases: cell-based, human
[1] = system: Daudi (CD20 positive Non-Hodgkin's lymphoma cells); assay: Membrane integrity, Cytotox Glo luminometric assay (Examples 12, 16, 19, 20, 22); conditions: 4 h, CHO expressed IgG2 ADCs, Example 22
Procedure: (§1) Naked antibody anti-CD20-IgG1-Phor18 were chemically conjugated (MS4A and AT80), Mw app.158,000 g/mol at a concentrations of 0.34 mg/ml (MS4A-Phor18) and 0.76 mg/ml (AT-80-Phor18). Cell lines were obtained at the American Type Cell Collection (Mannassas, Va.). Human Non-Hodgkin's lymphoma cells Daudi (CD20 positive, passage number p2), Raji (CD20 positive p 2) and human leukemia cell line U937 (CD20 negative, p 10) were seeded at a density of 3,000 cells per well in opaque plates in heat inactivated full medium. After 24 hours cells were replenished with fresh media (75 μl) and incubated with 25 μl of a 4× serial dilution of MS4A1-Phor18 and AT80-Phor18 of 0.001, 0.01, 0.1, 1, 10, 100 and 500 nM (N=6). Cells incubated for 2-5 hours were assayed for membrane integrity using a luminometric assay kit (Promega, Madison, Wis., Cytotox Glo G9292 lot #301329). Cell viability was determined was determined after 24, and 48 hours using a luminescent assay kit (Promega, Madison, Wis., Cell Titer Glo, G 7572, lot 30068102).
(§2) The concentration of each naked antibody fragment and ADC was determined according to Bradford. Naked antibody scFv Mw 27,088 g/mol at a concentration of 0.3 mg/ml, minibody Mw 78,988 g/mol, 0.231 mg/ml; Phor 18 conjugated antibodies were scFv-Phor18 (Mw 29,349 g/mol, 0.9 mg/ml) and minibody-Phor18 (Mw 93,515, 0.48 mg/ml). Cell lines were obtained at the American Type Cell Collection (Mannassas, Va.). Human Non-Hodgkin's lymphoma cells Daudi (CD20 positive, passage number p8) and human leukemia cell line U937 (CD20 negative, p 16) were seeded at a density of 2,000 cells per well in opaque plates in heat inactivated full medium. After 24 hours cells were replenished with fresh media (75 μl) and incubated with 25 μl of a 4× serial dilution of scFv-Phor18 and minibody-Phor18 ADC and naked antibody fragment (scFv and minibody) prepared in cell culture media were added at concentrations of 0.0001, 0.001, 0.01, 0.1, 1, 10, 100, 200, and 500 nM (N=6). Cells incubated for 4 hours were assayed for membrane integrity using a luminometric assay kit (Promega, Madison, Wis., Cytotox Glo G9292 lot #301329). Cell viability was determined was determined after 24, 48 and 72 hours using a luminescent assay kit (Promega, Madison, Wis., Cell Titer Glo, G 7572, lot 30062102).
(§3) Controls for 100% cell viability (culture media) and 100% cell death (0.1% Triton X 100) incubated under the same conditions.
(§4) Data were processed and analyzed to obtain IC50 values using Graph Pad Prizm version 5.00 for Windows, GraphPad Software, San Diego Calif. USA, www-graphpad-com (Graph Pad Prizm, Inc). Statistical analysis for significance was determined by a two-tailed Student's T-test. Each test was conducted using 2 plates with 2-3 wells each to achieve an N of 4-6 data points per time point.
(§5) The concentration of each naked antibody fragment and ADC was determined spectrophotometrically (OD280). Naked antibody scFv-Fc Mw 52,562 g/mol at a concentration of 1.1 mg/ml, Phor 18 conjugated antibodies were Phor18-VL-scFvFc (Mw 54,685 g/mol, 1.0 mg/ml), scFv-Fc-CH3-Phor18 (Mw 54,685 g/mol, 0.8 mg/ml). Human Non-Hodgkin's lymphoma cells Daudi (CD20 positive, passage number p7) and human leukemia cell line U937 (CD20 negative, p 6) were seeded at a density of 2,000 cells per well in opaque plates in heat inactivated full medium using cell dissociation buffer. After 24 hours cells were replenished with fresh media (75 μl) and incubated and incubated with 25 μl of a 4× serial dilution of each ADC and naked antibody prepared in cell culture media were added at concentrations of 0.01, 0.1, 1, 10, 100, 200 and 500 nM for scFvFc, Phor18-VL-scFvFc and scFv-Fc-CH3-Phor18.
(§6) Cells incubated for 4 hours were assayed for membrane integrity using a luminometric assay kit (Promega, Madison, Wis., Cytotox Glo G9292 lot #26229601). Cell viability was determined was determined after 24 hours using a luminescent assay kit (Promega, Madison, Wis., Cell Titer Glo, G 7572, lot 30731602). […]

[2] = system: U937 (CD20 negative leukemia cell line); assay: Cell viability, Cell Titer Glo luminescent assay (Examples 12, 16, 19, 20, 22); conditions: CHO expressed IgG2 ADCs, Example 22
Procedure: as §1, §2, §5
Cells incubated for 4 hours were assayed for membrane integrity using a luminometric assay kit (Promega, Madison, Wis., Cytotox Glo G9292 lot #26229601). Cell viability was determined was determined after 24 hours using a luminescent assay kit (Promega, Madison, Wis., Cell Titer Glo, G 7572, lot 30731602). Controls for 100% cell viability (culture media) and 100% cell death (0.1% Triton X 100) incubated under the same conditions.
Human Non-Hodgkin's lymphoma cells Daudi (CD20 positive, passage number p3) and human leukemia cell line U937 (CD20 negative, p 12) were seeded at a density of 2,000 cells per well in opaque plates in heat inactivated full medium using cell dissociation buffer. […]

[3] = system: Daudi (CD20 positive Non-Hodgkin's lymphoma cells); assay: as above; conditions: CHO expressed IgG2 ADCs, Example 22
Procedure: as §1, §2, §3, §4, §5, §6

[4] = system: U937 (CD20 negative leukemia cell line); assay: Membrane integrity, Cytotox Glo luminometric assay (Examples 19, 20, 22); conditions: CHO expressed IgG2 ADCs, Example 22
Procedure: as §5, with “After 24 hours cells were replenished with fresh media (75 μl) and incubated and incubated with 25 μl of a 4× serial dilution of each ADC and naked antibody prepared in cell culture media were added at concentrations of 0.01, 0.1, 1, 10, 100, 200 and 500 nM for scFvFc, Phor18-VL-scFvFc and scFv-Fc-CH3-Phor18.” left out
as §6
as §6, with “24, and 48” for “24”, “31386501).” for “30731602).”

IgG2: naked anti-CD20 IgG2 with Rituxan CDRs, CHO cells [reference compound]
Not toxic: IC50, Daudi 4 h (Membrane integrity) [1] | IC50, U937 24 h ([2]; U937, 24 h) | IC50, U937 48 h ([2]; U937, 48 h) | IC50, Daudi 24 h ([3]; 24 h) | IC50, Daudi 48 h ([3]; 48 h) | IC50, U937 4 h (Membrane integrity) [4]

From patent US20190367558A1, “ANTIBODY/DRUG CONJUGATES AND METHODS OF USE” (ESPERANCE PHARMACEUTICALS, INC., priority 2012, published 2019)
